Experiments:
[1] = target: recombinant ROCK2 (amino acids 1-552) (Homo sapiens (Human), UniProt O75116); experiment: Z'-lyte kinase assay, ROCK2; assay type: biochemical
Description: Determination of compounds ROCK inhibitory activity in vitro (Z'lyte assay): recombinant ROCK1 (amino acids 1-535) and ROCK2 (amino acids 1-552) proteins were purchased from ThermoFisher Scientific. Compounds activities were measured by Z'-lyte kinase kit (ThermoFisher Scientific) and IC50s were calculated.
Compounds activities were measured by Z'-lyte kinase kit (ThermoFisher Scientific). […] IC50s were calculated using the GraphPad Prism software with kinase activities data that were collected from 9 points serial dilution of compounds treatment. The ROCK inhibition in A7R5 cells and NIH3T3 (Acta2-Luc) cells was performed as described above.
The percent inhibition rate was calculated by normalizing the kinase activity value obtained with compound treatment against DMSO control value and then applied to the equation, […]. IC50's were calculated using the nonlinear regression curve fit function of the GraphPad Prism software with kinase activities data measured with 9 points 2-fold serial dilution of compounds treatment.

[2] = test system: ppMlc (T18/S19) levels in A7R5 cells; experiment: A7R5 in-cell ELISA assay (ppMlc); assay type: cell-based, rat; conditions: Rattus norvegicus, A7R5, A7R5 cells, Table 2; read-out: pMLC IC50 (nM) A7R5
Description: Determination of compounds ROCK inhibitory activity in A7R5 cells: rat aortic smooth muscle cell line A7R5 cells were maintained and treated in DMEM medium with 10% of fetal bovine serum. Cells were seeded with density of 5,000 cells/well in 96-well plates for 24 hours and subsequently treated 90 min with testing compounds. Cells were then fixed and processed according to the In-Cell ELISA Colorimetric Detection Kit manual (Thermo Scientific).
A7R5 cells were treated with 9 points 2 fold serial dilution of compounds and ppMlc (T18/S19) levels were determined in order to calculate the cellular IC50s of the compounds.
An A7R5 in-cell ELISA assay was performed to determine ROCK inhibition of test articles. A7R5 cells were treated with 9 points 2-fold serial dilution of compounds and ppMlc (T18/S19) levels were determined to calculate cellular IC50 values of the compounds. […] A7R5 cells were treated with 9 points 2-fold serial dilution of compounds and ppMlc (T18/S19) levels were determined to calculate cellular IC50 values of the compounds using the nonlinear regression curve fit function of the GraphPad Prism software.

[3] = test system: ACTA2-promoter-driven-luciferase in NIH3T3 cells; experiment: NIH3T3 Acta2-promoter driven-luciferase assay; assay type: cell-based; conditions: Mus musculus, plus TGFβ1, 24 hr, read-out: NIH3T3, Acta2-luc, IC50
Description: NIH3T3 cells Acta2-promoter driven-luciferase assay: A NIH3T3 cell line stably expressing a luciferase reporter driven by the human ACTA2 gene promoter (−1000-1 bp) was established (NIH3T3-Acta2-luciferase). The cells were plated to confluence and treated with the test compounds plus TGFβ1 for 24 hr. Cells were then lysed and luciferase activity was measured using the LightSwitch luciferase kit from Active Motif.
ROCK inhibitors can be effectively rank ordered by ACTA2-promoter-driven-luciferase reporter cell assay. NIH3T3 cells stably expressing ACTA2-promoter-driven-luciferase were applied to measure ROCK compounds functional IC50's in cells. Cells were plated in 96 well plates to confluence and treated with 9 points serial dilution of compounds in combination with TGFβ1 for 24 hr. Luciferase activities were measured and compound's IC50's were calculated using the nonlinear regression curve fit function of the GraphPad Prism software. Compounds of the invention gave in cell IC50's under 200 nM, see FIG. 1c.

Chain of recombinant ROCK2 (amino acids 1-552) (O75116 1-552): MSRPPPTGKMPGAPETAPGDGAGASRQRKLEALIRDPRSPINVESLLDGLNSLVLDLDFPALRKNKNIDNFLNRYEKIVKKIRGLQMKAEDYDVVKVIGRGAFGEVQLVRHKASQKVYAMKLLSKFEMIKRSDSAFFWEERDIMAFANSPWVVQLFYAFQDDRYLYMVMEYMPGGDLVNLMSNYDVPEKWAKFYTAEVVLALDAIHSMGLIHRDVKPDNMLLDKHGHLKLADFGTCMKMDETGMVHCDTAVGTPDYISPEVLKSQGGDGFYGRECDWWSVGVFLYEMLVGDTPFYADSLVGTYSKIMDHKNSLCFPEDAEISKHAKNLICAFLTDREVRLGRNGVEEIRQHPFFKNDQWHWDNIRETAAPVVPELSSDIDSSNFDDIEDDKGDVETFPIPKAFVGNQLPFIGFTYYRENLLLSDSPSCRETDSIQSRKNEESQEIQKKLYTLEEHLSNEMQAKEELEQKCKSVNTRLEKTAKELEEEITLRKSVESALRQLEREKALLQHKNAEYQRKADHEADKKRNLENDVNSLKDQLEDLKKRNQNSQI

Row | Structure (SMILES) | IC50 [1] [µM] | IC50 [2] [nM] | IC50 [3] [µM]
1 | CNC(C(=O)Nc1ccc(-c2cn[nH]c2)cc1)c1cccc(N(C)C)c1 (stereo not drawn) [Example 28, N-(4-(1H-pyrazol-4-yl)phenyl)-2-(3-(dimethylamino)phenyl)-2-(methylamino)acetamide] | 0.082 | 947 | 0.335
2 | CN[C@H](C(=O)Nc1ccc(-c2cn[nH]c2)cc1)c1ccc(Cl)cc1 [Example 64, (S)—N-(4-(1H-pyrazol-4-yl)phenyl)-2-(4-chlorophenyl)-2-(methylamino)acetamide] | 0.024 | 379 | 0.227
3 | COCCNC(C(=O)Nc1ccc(-c2cn[nH]c2)c(F)c1)c1cccc(OC)c1 (stereo not drawn) [Example 55, N-(3-fluoro-4-(1H-pyrazol-4-yl)phenyl)-2-((2-methoxyethyl)amino)-2-(3-methoxyphenyl)acetamide] | 0.017 | 506 | 0.601
4 | CNC(C(=O)Nc1ccc(-c2cn[nH]c2)cc1)c1ccc(C(=O)OC)cc1 (stereo not drawn) [Example 34, methyl 4-(2-((4-(1H-pyrazol-4-yl)phenyl)amino)-1-(methylamino)-2-oxoethyl)benzoate] | 0.31 | > 5000 | > 5
5 | CNC(C(=O)Nc1ccc(-c2cn[nH]c2)cc1)c1ccc(C)cc1 (stereo not drawn) [Example 21, N-(4-(1H-pyrazol-4-yl)phenyl)-2-(methylamino)-2-(p-tolyl)acetamide] | 0.0031 | 47 | 0.066
6 | CNC(C(=O)Nc1cc(F)c(-c2cn[nH]c2)cc1OCCN(C)C)c1cccc(OC)c1 (stereo not drawn) [Example 71, N-(2-(2-(dimethylamino)ethoxy)-5-fluoro-4-(1H-pyrazol-4-yl)phenyl)-2-(3-methoxyphenyl)-2-(methylamino)acetamide] | 0.003 | 57 | 0.301
7 | CCNC(C(=O)Nc1ccc(-c2cn[nH]c2)cc1)c1ccc(Cl)cc1 (stereo not drawn) [Example 22, N-(4-(1H-pyrazol-4-yl)phenyl)-2-(4-chlorophenyl)-2-(ethylamino)acetamide] | 0.0089 | 169 | 0.155
8 | CNC(=O)c1cccc(C(NC)C(=O)Nc2ccc(-c3cn[nH]c3)cc2)c1 (stereo not drawn) [Example 67, 3-(2-((4-(1H-pyrazol-4-yl)phenyl)amino)-1-(methylamino)-2-oxoethyl)-N-methylbenzamide] | 0.0019 | 269 | 0.296
9 | CCNC(C(=O)Nc1ccc(-c2cn[nH]c2)cc1)c1cccc(F)c1 (stereo not drawn) [Example 15, N-(4-(1H-pyrazol-4-yl)phenyl)-2-(ethylamino)-2-(3-fluorophenyl)acetamide] | 0.024 | 655 | 1.05
10 | COCCNC(C(=O)Nc1ccc(-c2cn[nH]c2)c(OC)c1)c1cccc(OC)c1 (stereo not drawn) [Example 56, N-(3-methoxy-4-(1H-pyrazol-4-yl)phenyl)-2-((2-methoxyethyl)amino)-2-(3-methoxyphenyl)acetamide] | 0.0053 | 115 | 0.078
11 | CN[C@@H](C(=O)Nc1cc(F)c(-c2cn[nH]c2)cc1OCCN(C)C)c1cccc(OC)c1 [Example 72, (R)—N-(2-(2-(dimethylamino)ethoxy)-5-fluoro-4-(1H-pyrazol-4-yl)phenyl)-2-(3-methoxyphenyl)-2-(methylamino)acetamide] | 0.046 | 382 | 0.984
12 | CNC(C(=O)Nc1cc(F)c(-c2cn[nH]c2)cc1OCCCN(C)C)c1cccc(OC)c1 (stereo not drawn) [Example 70, N-(2-(3-(dimethylamino)propoxy)-5-fluoro-4-(1H-pyrazol-4-yl)phenyl)-2-(3-methoxyphenyl)-2-(methylamino)acetamide] | 0.0077 | 134 | 

More lines, main results first:

Row | IC50 [1] [µM] | IC50 [2] [nM] | Structure (SMILES) | IC50 [3] [µM]
13 | 0.03 | 321 | COCCN(C)C(C(=O)Nc1ccc(-c2cn[nH]c2)cc1)c1cccc(OC)c1 (stereo not drawn) [Example 47, N-(4-(1H-pyrazol-4-yl)phenyl)-2-((2-methoxyethyl)(methyl)amino)-2-(3-methoxyphenyl)acetamide] | 0.465
14 | 0.031 | 759 | COCC1(NC(C(=O)Nc2ccc(-c3cn[nH]c3)cc2)c2cccc(OC)c2)CC1 (stereo not drawn) [Example 53, N-(4-(1H-pyrazol-4-yl)phenyl)-2-((1-(methoxymethyl)cyclopropyl)amino)-2-(3-methoxyphenyl)acetamide] | 1.26
15 | 0.012 | 1250 | COc1cccc(C(NCC(N)=O)C(=O)Nc2ccc(-c3cn[nH]c3)cc2)c1 (stereo not drawn) [Example 41, N-(4-(1H-pyrazol-4-yl)phenyl)-2-((2-amino-2-oxoethyl)amino)-2-(3-methoxyphenyl)acetamide] | > 5
16 | 0.0065 | 359 | CNCCCNC(C(=O)Nc1ccc(-c2cn[nH]c2)cc1)c1cccc(OC)c1 (stereo not drawn) [Example 42, N-(4-(1H-pyrazol-4-yl)phenyl)-2-(3-methoxyphenyl)-2-((3-(methylamino)-propyl)amino)acetamide] | 
17 | 0.0087 | 338 | COc1cccc(C(NCCCN(C)C)C(=O)Nc2ccc(-c3cn[nH]c3)cc2)c1 (stereo not drawn) [Example 38, N-(4-(1H-pyrazol-4-yl)phenyl)-2-((3-(dimethylamino)propyl)amino)-2-(3-methoxyphenyl)acetamide] | 1.62
18 | 0.0154 | 355 | CNC(C(=O)Nc1ccc(-c2cn[nH]c2)cc1)c1ccc(OC)cc1 (stereo not drawn) [Example 9, N-(4-(1H-pyrazol-4-yl)phenyl)-2-(4-methoxyphenyl)-2-(methylamino)acetamide] | 
19 | 0.01 | 74 | COc1cccc(C(NCCN(C)C)C(=O)Nc2ccc(-c3cn[nH]c3)cc2)c1 (stereo not drawn) [Example 57, N-(4-(1H-pyrazol-4-yl)phenyl)-2-((2-(dimethylamino)ethyl)amino)-2-(3-methoxyphenyl)acetamide] | 0.175
20 | 0.037 | 977 | CCOCCNC(C(=O)Nc1ccc(-c2cn[nH]c2)cc1)c1cccc(OC)c1 (stereo not drawn) [Example 37, N-(4-(1H-pyrazol-4-yl)phenyl)-2-((2-ethoxyethyl)amino)-2-(3-methoxyphenyl)acetamide] | 2.31
21 | 0.068 | 1520 | COc1cccc(C(NCCOCC(F)(F)F)C(=O)Nc2ccc(-c3cn[nH]c3)cc2)c1 (stereo not drawn) [Example 54, N-(4-(1H-pyrazol-4-yl)phenyl)-2-(3-methoxyphenyl)-2-((2-(2,2,2-trifluoroethoxy)ethyl)amino)acetamide] | 2.67
22 | 0.0024 | 97 | COc1cccc(C(NCCN2CCOCC2)C(=O)Nc2ccc(-c3cn[nH]c3)cc2)c1 (stereo not drawn) [Example 50, N-(4-(1H-pyrazol-4-yl)phenyl)-2-(3-methoxyphenyl)-2-((2-morpholinoethyl)amino)acetamide] | 0.092
23 | > 1 |  | COc1cccc(C2C(=O)N(c3ccc(-c4cn[nH]c4)cc3)CCCN2CCN(C)C)c1 (stereo not drawn) [Example 75, 1-(4-(1H-pyrazol-4-yl)phenyl)-4-(2-(dimethylamino)ethyl)-3-(3-methoxyphenyl)-1,4-diazepan-2-one] | 
24 | 0.047 | 1490 | COCC(C)(C)NC(C(=O)Nc1ccc(-c2cn[nH]c2)cc1)c1cccc(OC)c1 (stereo not drawn) [Example 43, N-(4-(1H-pyrazol-4-yl)phenyl)-2-((1-methoxy-2-methylpropan-2-yl)amino)-2-(3-methoxyphenyl)acetamide] | 
25 | > 1 |  | COc1cccc(C2C(=O)N(c3ccc(-c4cn[nH]c4)cc3)CCCN2CC2CC2)c1 (stereo not drawn) [Example 74, 1-(4-(1H-pyrazol-4-yl)phenyl)-4-(cyclopropylmethyl)-3-(3-methoxyphenyl)-1,4-diazepan-2-one] | 
26 | > 1 |  | COCCNC(C(=O)N(C)c1ccc(-c2cn[nH]c2)cc1)c1cccc(OC)c1 (stereo not drawn) [Example 49, N-(4-(1H-pyrazol-4-yl)phenyl)-2-((2-methoxyethyl)amino)-2-(3-methoxyphenyl)-N-methylacetamide] | 
27 | 0.95 |  | CNCCN1CCCN(c2ccc(-c3cn[nH]c3)cc2)C(=O)C1c1cccc(OC)c1 (stereo not drawn) [Example 76, 1-(4-(1H-pyrazol-4-yl)phenyl)-3-(3-methoxyphenyl)-4-(2-(methylamino)ethyl)-1,4-diazepan-2-one] | 
